Assay results from ChEMBL document CHEMBL1201862, “PubChem BioAssay data set” (2004).
Activity calls are given as the source filed them.

What was measured:
[1] = target: Sphingosine 1-phosphate receptor 2 (Homo sapiens, UniProt O95136); assay: Dose Response Cell Based Assay for Agonists of the S1P2 Receptor. [Related pubchem assays: 729, 736, 843 ]; type: functional
Bcl-2-related protein A1 [2] = target: T1, Bcl-2-related protein A1 (Mus musculus, UniProt Q07440); assay: Bfl-1 binding inhibitors, SAR follow-up, biochemical, fluorescence polarization (AID 1070)
T1 sequence (Q07440 whole entry): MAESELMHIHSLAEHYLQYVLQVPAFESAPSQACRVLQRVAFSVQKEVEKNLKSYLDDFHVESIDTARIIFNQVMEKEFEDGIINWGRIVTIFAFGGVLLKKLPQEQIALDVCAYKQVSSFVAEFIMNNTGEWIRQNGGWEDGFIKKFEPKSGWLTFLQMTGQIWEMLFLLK

[3] = target: Glyceraldehyde-3-phosphate dehydrogenase (Homo sapiens, UniProt P04406)
Glyceraldehyde-3-phosphate dehydrogenase, sequence (P04406 whole entry): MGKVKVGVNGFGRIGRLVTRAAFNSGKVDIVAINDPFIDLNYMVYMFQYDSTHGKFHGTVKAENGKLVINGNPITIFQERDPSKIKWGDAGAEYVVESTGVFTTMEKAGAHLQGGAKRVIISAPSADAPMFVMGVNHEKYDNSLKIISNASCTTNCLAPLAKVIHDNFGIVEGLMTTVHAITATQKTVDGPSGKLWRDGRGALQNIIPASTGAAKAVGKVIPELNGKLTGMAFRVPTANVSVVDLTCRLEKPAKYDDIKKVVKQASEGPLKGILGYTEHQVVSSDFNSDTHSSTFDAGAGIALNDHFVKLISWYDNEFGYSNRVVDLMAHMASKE

Bcl-2-related protein A1 [4] = target: T1, Bcl-2-related protein A1; assay: Bfl-1 inhibitors blocking BH3 peptide binding, confirmation, biochemical, TR-FRET, mouse Bfl-1 (AID 621);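 further: TR-FRET binding of GST-Bfl-1 to FITC-labelled Bid peptide via terbium antibody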
[5] = HeLa cell cytotoxicity, dose response, cytotoxicity control for MgcRacGAP inhibitor project (AID 624300); type: functional
[6] = CEM21 lymphoblast cell cytotoxicity, dose response, cytotoxicity control for viral fusion inhibitor project, CellTiter-Glo luminescence, cherry-picked (AID 652042); type: functional, cell-based;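 further: potency for signal decrease meaning cytotoxicity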
[7] = Vero cell cytotoxicity, dose response, cytotoxicity control for Vif-APOBEC3G degradation inhibitor project, Vero cells (AID 1117358); type: functional; details: Human immunodeficiency virus 1, Vero
[8] = inhibitors of HIV Env-driven cell fusion, dose response, cherry-pick (AID 652057); type: functional, cell-based
[9] = target: E3 ubiquitin-protein ligase Mdm2 (Homo sapiens, UniProt Q00987); assay: enhancers of MDM2-luciferase reporter signal, concentration-effect titration, project on inhibitors of MDM2 ubiquitin ligase, cellular assay, luminescent readout, 384-well plate format (AID 1394); type: functional;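 further: MDM2 E3 inhibitors raise luminescence so EC50 is for signal enhancement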
E3 ubiquitin-protein ligase Mdm2, sequence (Q00987 whole entry, the tested form may be a part): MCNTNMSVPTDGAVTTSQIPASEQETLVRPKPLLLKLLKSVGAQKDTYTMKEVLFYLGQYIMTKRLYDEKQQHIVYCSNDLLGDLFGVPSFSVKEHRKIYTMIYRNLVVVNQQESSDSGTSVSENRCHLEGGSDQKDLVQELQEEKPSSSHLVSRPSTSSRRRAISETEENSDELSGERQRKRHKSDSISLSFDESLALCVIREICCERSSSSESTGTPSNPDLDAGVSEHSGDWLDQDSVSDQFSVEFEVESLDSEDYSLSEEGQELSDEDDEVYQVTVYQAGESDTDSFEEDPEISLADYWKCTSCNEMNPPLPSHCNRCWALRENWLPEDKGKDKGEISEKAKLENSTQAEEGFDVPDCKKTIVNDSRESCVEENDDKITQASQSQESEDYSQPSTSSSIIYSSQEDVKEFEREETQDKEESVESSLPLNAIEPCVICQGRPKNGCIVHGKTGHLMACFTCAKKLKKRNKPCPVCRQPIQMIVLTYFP

[10] = target: T2, Carboxy-terminal domain RNA polymerase II polypeptide A small phosphatase 1 (Homo sapiens, UniProt Q9GZU7); assay: inhibitors of CTDSP1, concentration-response testing, biochemical assay, absorbance-based, actives from ultra-high-throughput screening (AID 540297); type: functional
T2 sequence (Q9GZU7 whole entry): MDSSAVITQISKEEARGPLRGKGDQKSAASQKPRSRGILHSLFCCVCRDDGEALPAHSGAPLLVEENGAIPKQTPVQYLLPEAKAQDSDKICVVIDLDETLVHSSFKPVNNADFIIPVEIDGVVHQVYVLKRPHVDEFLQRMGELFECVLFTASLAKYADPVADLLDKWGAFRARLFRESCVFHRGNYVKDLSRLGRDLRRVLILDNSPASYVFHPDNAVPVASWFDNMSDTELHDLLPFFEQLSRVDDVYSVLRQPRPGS

[11] = test system: Streptococcus sp. 'group A'; assay: growth inhibition of control SK(-) GAS strain, dose response, counter-screen for streptokinase expression inhibitor project, luminescence, kanamycin, BacTiterGlo, confirmation (AID 1900); type: functional, organism-based
Streptococcus = assay: Group A Streptococcus viability loss, dose response, counter-screen for streptokinase expression inhibitor project, luminescence, BacTiterGlo (AID 1915); type: functional, organism-based;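 further: potency for reduction of bacterial viability or growth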
Streptokinase A = target: T3, Streptokinase A (Streptococcus pyogenes serotype M1, UniProt P10520); assay: S. pyogenes streptokinase expression inhibitors, potency, dose response, plasminogen activation absorbance, OD405 (AID 1914); type: functional, Streptococcus pyogenes M1 GAS;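 further: secreted streptokinase activity via plasminogen activation per viability signal from cell pellet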
T3 sequence (P10520 whole entry): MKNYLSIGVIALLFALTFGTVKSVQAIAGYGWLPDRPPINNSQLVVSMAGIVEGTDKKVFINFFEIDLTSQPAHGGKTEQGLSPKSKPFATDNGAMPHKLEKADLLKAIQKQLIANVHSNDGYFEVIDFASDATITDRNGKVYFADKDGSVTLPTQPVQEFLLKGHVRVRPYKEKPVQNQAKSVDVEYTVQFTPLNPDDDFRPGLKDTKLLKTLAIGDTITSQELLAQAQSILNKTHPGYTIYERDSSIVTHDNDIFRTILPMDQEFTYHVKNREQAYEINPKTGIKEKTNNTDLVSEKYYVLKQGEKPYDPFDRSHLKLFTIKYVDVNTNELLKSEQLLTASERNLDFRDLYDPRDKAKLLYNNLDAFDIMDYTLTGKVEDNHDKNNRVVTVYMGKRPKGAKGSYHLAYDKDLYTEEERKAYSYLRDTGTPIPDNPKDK

[12] = target: Protein-tyrosine kinase 2-beta (Homo sapiens, UniProt Q14289);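 further: potency of inhibitors of PYK2 kinase phosphorylation of poly-GT substrate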
Protein-tyrosine kinase 2-beta, sequence (Q14289 whole entry): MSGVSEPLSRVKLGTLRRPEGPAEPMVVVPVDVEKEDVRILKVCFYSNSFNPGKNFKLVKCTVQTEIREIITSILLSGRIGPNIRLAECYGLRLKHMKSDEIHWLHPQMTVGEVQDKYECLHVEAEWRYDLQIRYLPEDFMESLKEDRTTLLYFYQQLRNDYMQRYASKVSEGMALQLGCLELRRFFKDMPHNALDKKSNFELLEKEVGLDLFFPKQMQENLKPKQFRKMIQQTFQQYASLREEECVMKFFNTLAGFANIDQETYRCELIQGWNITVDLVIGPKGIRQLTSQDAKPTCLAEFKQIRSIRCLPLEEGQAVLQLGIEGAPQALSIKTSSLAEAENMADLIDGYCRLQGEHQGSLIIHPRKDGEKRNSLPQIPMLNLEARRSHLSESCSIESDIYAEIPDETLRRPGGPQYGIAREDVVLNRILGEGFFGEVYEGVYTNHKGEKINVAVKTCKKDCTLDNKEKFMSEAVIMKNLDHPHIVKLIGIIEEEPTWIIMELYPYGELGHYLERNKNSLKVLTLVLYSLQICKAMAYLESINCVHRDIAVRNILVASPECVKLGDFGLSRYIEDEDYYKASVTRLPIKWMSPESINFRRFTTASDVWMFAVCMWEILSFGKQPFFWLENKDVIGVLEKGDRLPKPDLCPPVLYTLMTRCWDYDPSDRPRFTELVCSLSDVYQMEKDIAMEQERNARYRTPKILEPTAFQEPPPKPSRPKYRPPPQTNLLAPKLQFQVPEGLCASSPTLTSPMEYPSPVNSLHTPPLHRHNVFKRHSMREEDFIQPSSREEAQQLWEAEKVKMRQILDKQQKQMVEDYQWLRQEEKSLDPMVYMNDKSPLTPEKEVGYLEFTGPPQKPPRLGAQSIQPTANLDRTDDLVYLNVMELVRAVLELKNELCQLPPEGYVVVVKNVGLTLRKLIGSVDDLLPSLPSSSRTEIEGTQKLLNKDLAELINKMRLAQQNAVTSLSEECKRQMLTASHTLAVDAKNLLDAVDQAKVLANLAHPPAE

Cytochrome P450 1A2 = target: T4, Cytochrome P450 1A2 (Homo sapiens, UniProt P05177);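 further: PubChem cytochrome P450 panel assay, CYP1A2 panel member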
T4 sequence (P05177 whole entry): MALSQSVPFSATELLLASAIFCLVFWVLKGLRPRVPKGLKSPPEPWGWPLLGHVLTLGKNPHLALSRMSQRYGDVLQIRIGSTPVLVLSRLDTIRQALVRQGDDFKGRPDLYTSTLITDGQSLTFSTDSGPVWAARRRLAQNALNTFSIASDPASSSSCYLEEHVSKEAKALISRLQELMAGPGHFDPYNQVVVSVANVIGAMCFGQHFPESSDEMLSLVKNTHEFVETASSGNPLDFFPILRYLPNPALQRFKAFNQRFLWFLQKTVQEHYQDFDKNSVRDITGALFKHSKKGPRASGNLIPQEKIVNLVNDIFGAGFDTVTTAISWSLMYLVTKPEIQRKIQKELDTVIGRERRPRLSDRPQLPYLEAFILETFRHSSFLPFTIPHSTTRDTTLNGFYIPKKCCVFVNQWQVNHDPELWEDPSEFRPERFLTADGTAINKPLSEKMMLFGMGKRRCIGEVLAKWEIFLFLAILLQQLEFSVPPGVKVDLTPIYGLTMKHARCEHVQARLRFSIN

Cytochrome P450 3A4 = Cytochrome P450 3A4 (Homo sapiens, UniProt P08684);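 further: CYP3A4 tested as one member of a cytochrome P450 panel screen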
Cytochrome P450 3A4, sequence (P08684 whole entry): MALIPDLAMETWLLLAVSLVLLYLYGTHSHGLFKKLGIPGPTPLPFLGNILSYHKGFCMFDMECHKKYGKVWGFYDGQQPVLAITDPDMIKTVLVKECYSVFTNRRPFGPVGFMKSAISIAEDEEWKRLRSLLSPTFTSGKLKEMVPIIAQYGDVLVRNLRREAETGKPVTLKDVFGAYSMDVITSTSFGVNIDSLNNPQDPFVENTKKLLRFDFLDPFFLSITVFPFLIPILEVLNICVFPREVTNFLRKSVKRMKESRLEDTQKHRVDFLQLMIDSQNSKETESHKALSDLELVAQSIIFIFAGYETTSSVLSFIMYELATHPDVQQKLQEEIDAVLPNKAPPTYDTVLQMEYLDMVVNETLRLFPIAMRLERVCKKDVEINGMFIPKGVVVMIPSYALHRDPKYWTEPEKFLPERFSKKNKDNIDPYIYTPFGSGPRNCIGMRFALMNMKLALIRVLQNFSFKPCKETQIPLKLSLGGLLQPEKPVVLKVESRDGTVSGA

Cytochrome P450 2C9 = Cytochrome P450 2C9 (Homo sapiens, UniProt P11712)
Cytochrome P450 2C9, sequence (P11712 whole entry): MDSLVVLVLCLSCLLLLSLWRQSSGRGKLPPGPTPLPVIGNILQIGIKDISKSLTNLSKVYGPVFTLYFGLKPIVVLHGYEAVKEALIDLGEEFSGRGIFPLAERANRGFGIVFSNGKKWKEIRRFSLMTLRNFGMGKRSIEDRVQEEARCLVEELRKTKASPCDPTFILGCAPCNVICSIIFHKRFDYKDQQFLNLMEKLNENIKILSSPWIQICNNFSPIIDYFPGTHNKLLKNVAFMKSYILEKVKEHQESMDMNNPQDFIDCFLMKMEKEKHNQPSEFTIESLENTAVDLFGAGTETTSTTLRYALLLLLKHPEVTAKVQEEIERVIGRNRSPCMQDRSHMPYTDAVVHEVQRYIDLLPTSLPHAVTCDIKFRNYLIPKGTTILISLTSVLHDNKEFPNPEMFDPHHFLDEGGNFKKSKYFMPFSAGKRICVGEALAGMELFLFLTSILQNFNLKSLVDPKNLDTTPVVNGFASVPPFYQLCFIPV

Cytochrome P450 2C19 = Cytochrome P450 2C19 (Homo sapiens, UniProt P33261); assay: Cytochrome panel assay with activity outcomes. Panel member name: p450-cyp2c19 Compounds with AC50 equal or less than 10 uM are considered active; type: functional; details: read-out: AC50
Cytochrome P450 2C19, sequence (P33261 whole entry): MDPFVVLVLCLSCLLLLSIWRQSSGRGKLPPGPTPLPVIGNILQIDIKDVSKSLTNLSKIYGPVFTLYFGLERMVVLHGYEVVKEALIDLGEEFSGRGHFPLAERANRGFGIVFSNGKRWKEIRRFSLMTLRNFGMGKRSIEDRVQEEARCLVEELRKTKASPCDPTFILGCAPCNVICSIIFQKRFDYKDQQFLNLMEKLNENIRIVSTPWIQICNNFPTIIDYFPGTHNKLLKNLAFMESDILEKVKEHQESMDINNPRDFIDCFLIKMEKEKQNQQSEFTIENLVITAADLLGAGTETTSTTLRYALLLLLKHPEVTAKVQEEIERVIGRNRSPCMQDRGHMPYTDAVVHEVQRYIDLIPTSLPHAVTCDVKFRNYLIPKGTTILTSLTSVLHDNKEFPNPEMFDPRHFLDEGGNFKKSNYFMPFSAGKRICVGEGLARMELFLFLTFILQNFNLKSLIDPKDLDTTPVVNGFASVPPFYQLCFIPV

Sphingosine 1-phosphate receptor 2, sequence (O95136 whole entry): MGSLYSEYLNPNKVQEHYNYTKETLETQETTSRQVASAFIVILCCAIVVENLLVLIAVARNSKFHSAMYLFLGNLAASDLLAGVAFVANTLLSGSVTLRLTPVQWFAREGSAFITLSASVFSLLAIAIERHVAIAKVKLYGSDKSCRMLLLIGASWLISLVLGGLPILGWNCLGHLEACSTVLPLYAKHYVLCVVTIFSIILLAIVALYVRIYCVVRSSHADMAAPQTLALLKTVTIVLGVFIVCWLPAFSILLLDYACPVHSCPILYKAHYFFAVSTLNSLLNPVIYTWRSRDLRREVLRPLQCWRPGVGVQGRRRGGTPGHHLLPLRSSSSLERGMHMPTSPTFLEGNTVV

Structure (SMILES): Cc1cc(-c2nnc(SCC(=O)NC3CCCC3)o2)no1
- EC50 [1]: > 50 µM (not active)

Structure (SMILES): O=C1C(Cl)=C(N2CCN(Cc3ccc4c(c3)OCO4)CC2)C(=O)N1c1ccc([N+](=O)[O-])cc1
- IC50 (Bcl-2-related protein A1 [2]): 4.68 µM (active)
- IC50 [3]: > 100 µM (not active)
- IC50 (Bcl-2-related protein A1 [4]): 4.59 µM (active)

Structure (SMILES): COc1ccc2[nH]c3c(N4CCC(O)(c5cccc(C(F)(F)F)c5)CC4)ncnc3c2c1
- CC50 [5]: 33 µM (active)
- AC50 [6]: 7.3 µM (active)
- CC50 [7]: 29.4 µM (active)
- AC50 [8]: 9.77 µM (active)

Structure (SMILES): Cc1ccsc1C1Nc2ccc3ncccc3c2C2=C1C(=O)CCC2 (stereo not drawn)
- EC50 [9]: 25 µM (not active)

Structure (SMILES): COc1ccc(Cn2c(-c3ccco3)nc3oc4cc(OC)ccc4c(=O)c3c2=O)cc1
- IC50 [10]: 7.58 µM (active)
- EC50 [1]: > 50 µM (not active)
- EC50 [11]: 25.5 µM (active)
- EC50 (Streptococcus): > 150 µM (not active)
- EC50 (Streptokinase A): > 150 µM (not active)

Structure (SMILES): O=C1C(Cl)=C(N2CCN(c3ccc(F)cc3)CC2)C(=O)N1c1ccc(Cl)c(Cl)c1
- IC50 (Bcl-2-related protein A1 [2]): > 100 µM (not active)
- IC50 (Bcl-2-related protein A1 [4]): 19.1 µM (active)

Structure (SMILES): C=CCn1c(P(=O)(O)c2ccccc2)nc2ccccc21
- IC50 [12]: 26.6 µM (not active)
- AC50 (Cytochrome P450 1A2): 15.8 µM (inconclusive)
- AC50 (Cytochrome P450 3A4): inconclusive
- AC50 (Cytochrome P450 2C9): 25.1 µM (inconclusive)
- AC50 (Cytochrome P450 2C19): 6.31 µM (inconclusive)

Structure (SMILES): COC(=O)C(C(=O)Nc1ccc(OC)cc1)C1CCCCCC1 (stereo not drawn)
- CC50 [7]: > 40 µM (active)

Structure (SMILES): NC(=O)c1c(NC(=O)C2CCCO2)sc2c1CCCC2 (stereo not drawn)
- EC50 [9]: 7.26 µM (not active)
